Measurements from US12291501B2 (University of Florida Research Foundation, Inc., priority 2021, dated 2025).
“And” between values parts separate entries of the source, which are not always exact repeats. Equal values may be shown once. “Also recorded” adds a separate entry of the source. Read-outs that look alike come from different tables or passages of the source.

Experiments:
[1] = biological target: T1, α9 nAChR (Homo sapiens, UniProt Q9UGM1); assay: Two-electrode voltage-clamp, agonist concentration-response, α9 nAChR in Xenopus oocytes; assay type: cell-based; conditions: for α9 Imax: relative to ACh (Imax = 1)
T1 construct: expressed in transfected cells; host or cells: Xenopus laevis oocytes, injected with in vitro transcribed RNA
Text: (§1) Electrophysiology: Xenopus oocytes were microinjected with RNAs to produce functional nAChR which were characterized by two-electrode voltage-clamp measurements. FIGS. 5A-7D present concentration-response curves for the new compounds evaluated with α7, α9, and α9α10 receptors. Table 1 presents the values for Imax and EC50 with these receptors and Table 2 summarizes inhibition data for the compounds with heteromeric nAChR.
(§2) Molecular Biology: Plasmid DNAs encoding the human α7 and heteromeric nAChR were obtained from Jon Lindstrom (University of Pennsylvania, Philadelphia, PA). Mouse muscle subunit clones were obtained from Jim Boulter (Salk Institute, La Jolla CA) and Paul Gardner (Dartmouth, Hanover NH). The human resistance-to-cholinesterase 3 ([…]) clone was obtained from Millet Treinin (Hebrew University, Jerusalem, Israel) and RNA co-injected with α7 to improve the level and speed of receptor expression without affecting their pharmacological properties. Plasmid DNA encoding the human α10 nAChR was obtained from J. Michael McIntosh. Plasmid DNA encoding the human α9 nAChR and the human receptor-associated protein of the synapse (RAPSYN) with codon optimization for expression in Xenopus laevis were obtained from Katrin Richter. RAPSYN RNA was co-injected with the α9 and α10 to improve expression (Richter et al., (2022) Front. Cell Neurosci. 16: 779081). After linearization and purification of the plasmid DNAs, RNAs were prepared using the mMessage mMachine in vitro RNA transcription kit (Ambion, Austin, TX). Frogs were maintained in the Animal Care Service facility of the University of Florida, and all procedures were approved by the University of Florida Institutional Animal Care and Use Committee (approval number 202002669). In brief, the animals were first anesthetized for 15-20 min in 1.5 l frog tank water containing 1 g of MS-222 buffered with sodium bicarbonate. Oocytes were obtained surgically from mature female Xenopus laevis (Nasco, Ft. Atkinson WI, USA) and treated with 1.4 mg/ml type 1 collagenase (Worthington Biochemicals, Freehold NJ, USA) for 2-4 h at rt in Ca2+-free Barth's solution (88 mM NaCl, 1 mM KCl, 2.38 mM NaHCO3, 0.82 mM MgSO4, 15 mM HEPES, and 12 mg/l tetracycline, pH 7.6) to remove the ovarian tissue and the follicular layers. Stage V oocytes were injected with 4-6 ng CHRNA7 RNA and 2-3 ng RIC3 RNA (2:1 ratio) in 50 nl water, or with 12 ng CHRNA9 RNA and 3 ng RAPSN RNA, or along with 12 ng CHRNA10 RNA in 50 nl water. Oocytes were maintained in Barth's solution containing 0.32 mM Ca(NO3)2 and 0.41 mM CaCl2, and recordings were conducted 2-20 days after injection.
(§3) Electrophysiology: Two-electrode voltage-clamp experiments were conducted using OpusXpress 6000A (Molecular Devices, Union City CA, USA). Both the voltage and current electrodes were filled with 3 M KCl. Oocytes were voltage-clamped at −60 mV at rt. The oocytes were perfused with Ringer's solution (115 mM NaCl, 2.5 mM KCl, 1.8 mM CaCl2, 10 mM HEPES, 1 μM atropine, pH 7.2) at 2 ml/min. […] Drug applications were 12 s in duration followed by 181 s washout periods.
(§4) The responses were calculated as both peak-current amplitudes and net charge. Data were collected at 50 Hz, filtered at 20 Hz, and analyzed by Clampfit (Molecular Devices) and Excel (Microsoft, Redmond, WA, United States). Data are expressed as means±SEM from at least five oocytes for each experiment and plotted with Kaleidagraph 4.5.2 (Abelbeck Software, Reading, PA, United States). Each episode of data acquisition was a total of 210 s and included an initial 30 s period used to define the baseline for the drug-evoked responses. After 30 s, drugs were applied, and the following 120 s were defined as the drug response period for analysis. […] The values for the curve fits were generated using the Levenberg-Marquardt algorithm to obtain the best Chi-Square fit to the Hill equation using the Kaleidagraph 4.5.2 plotting program. […]

[2] = biological target: T2, α7 nAChR (Homo sapiens, UniProt P36544); assay: Two-electrode voltage-clamp, agonist concentration-response, α7 nAChR in Xenopus oocytes; assay type: cell-based; conditions: for EC50 / α7 Imax: net charge, ± standard error of fit; for α7 Imax: relative to ACh (Imax = 1)
T2 construct: expressed in transfected cells; host or cells: Xenopus laevis oocytes, injected with in vitro transcribed RNA
Text: as §1
(§5) Molecular Biology: Plasmid DNAs encoding the human α7 and heteromeric nAChR were obtained from Jon Lindstrom (University of Pennsylvania, Philadelphia, PA). Mouse muscle subunit clones were obtained from Jim Boulter (Salk Institute, La Jolla CA) and Paul Gardner (Dartmouth, Hanover NH). […] Plasmid DNA encoding the human α10 nAChR was obtained from J. Michael McIntosh. Plasmid DNA encoding the human α9 nAChR and the human receptor-associated protein of the synapse (RAPSYN) with codon optimization for expression in Xenopus laevis were obtained from Katrin Richter. […] After linearization and purification of the plasmid DNAs, RNAs were prepared using the mMessage mMachine in vitro RNA transcription kit (Ambion, Austin, TX). […] Oocytes were maintained in Barth's solution containing 0.32 mM Ca(NO3)2 and 0.41 mM CaCl2, and recordings were conducted 2-20 days after injection.
(§6) Electrophysiology: Two-electrode voltage-clamp experiments were conducted using OpusXpress 6000A (Molecular Devices, Union City CA, USA). Both the voltage and current electrodes were filled with 3 M KCl. Oocytes were voltage-clamped at −60 mV at rt.
(§7) The responses were calculated as both peak-current amplitudes and net charge. Data were collected at 50 Hz, filtered at 20 Hz, and analyzed by Clampfit (Molecular Devices) and Excel (Microsoft, Redmond, WA, United States). Data are expressed as means±SEM from at least five oocytes for each experiment and plotted with Kaleidagraph 4.5.2 (Abelbeck Software, Reading, PA, United States). Each episode of data acquisition was a total of 210 s and included an initial 30 s period used to define the baseline for the drug-evoked responses. After 30 s, drugs were applied, and the following 120 s were defined as the drug response period for analysis. […] The values for the curve fits were generated using the Levenberg-Marquardt algorithm to obtain the best Chi-Square fit to the Hill equation using the Kaleidagraph 4.5.2 plotting program. The errors in the tables are the calculated standard errors of the fit parameters based on the goodness of fit.

[3] = biological target: T1, α9 nAChR; conditions: earlier reports / Papke et al. (2022), Richter et al. (2022); cited from earlier work
[4] = biological target: T3, α9α10 nAChR (Homo sapiens, UniProt Q9GZZ6+Q9UGM1); conditions: relative to ACh (Imax = 1); data taken from Papke et al. (2022); cited from earlier work
T3 construct: expressed in transfected cells; host or cells: Xenopus laevis oocytes, injected with in vitro transcribed RNA

[5] = biological target: T2, α7 nAChR; conditions: cited from earlier work; for Agonist character at α7: earlier reports / Papke et al. (2022)
[6] = biological target: T3, α9α10 nAChR; assay: Two-electrode voltage-clamp, agonist concentration-response, α9α10 nAChR in Xenopus oocytes; assay type: cell-based; conditions: for α9α10 Imax: relative to ACh (Imax = 1)
Text: as §1, §2, §3, §4

[7] = biological target: T2, α7 nAChR; assay: α7 responses to drugs co-applied with the PAM PNU-120596 (silent agonism); assay type: cell-based; conditions: for Response co-applied with PNU-120596, normalized to ACh co-applied with PNU-120596: drug 30 μM + 10 μM PNU-120596, normalized to 30 μM ACh + 10 μM PNU-120596; for Response co-applied with PNU-120596 relative to the ACh controls: 30 μM compound + 10 μM PNU-120596, relative to ACh alone controls
Text: as §5, §6, §7

[8] = biological target: T4, α3β4 nAChR (Homo sapiens, UniProt P30926+P32297); assay: Inhibition of control ACh responses by co-application, α3β4 nAChR in oocytes; assay type: cell-based; conditions: 3 μM compound co-applied with ACh; fraction of control ACh response
T4 construct: expressed in transfected cells; host or cells: Xenopus laevis oocytes
Description: (§8) Initial profiling against heteromeric receptors: The test compounds for their ability to activate or inhibit other nAChR subtypes were evaluated. Agonist activity was evaluated by applying the compounds at 100 or 30 μM to human α4β2 and α3β4 as well as to mouse muscle α1β1εδ nAChR expressed in Xenopus oocytes. […] The inhibitory activity was generally low (Table 3).
as §2, §3, §7

[9] = biological target: T5, α4β2 nAChR (Homo sapiens, UniProt P17787+P43681); assay: Inhibition of control ACh responses by co-application, α4β2 nAChR in oocytes; assay type: cell-based; conditions: 3 μM compound co-applied with ACh; fraction of control ACh response
T5 construct: expressed in transfected cells; host or cells: Xenopus laevis oocytes
Description: as §8, §2, §3, §7

[10] = biological target: T6, α1β1εδ nAChR (Mus musculus, UniProt P02716+P04756+P09690+P20782); assay: Inhibition of control ACh responses by co-application, muscle α1β1εδ nAChR in oocytes; assay type: cell-based; conditions: 3 μM compound co-applied with ACh; fraction of control ACh response
T6 construct: expressed in transfected cells; host or cells: Xenopus laevis oocytes
Description: as §8, §2, §3, §7

[11] = peak currents, ± standard error of fit
[12] = 3e vs larger ammonium analogs, 3h relative to 3g

T5 sequence (P43681 29-627 limits assumed): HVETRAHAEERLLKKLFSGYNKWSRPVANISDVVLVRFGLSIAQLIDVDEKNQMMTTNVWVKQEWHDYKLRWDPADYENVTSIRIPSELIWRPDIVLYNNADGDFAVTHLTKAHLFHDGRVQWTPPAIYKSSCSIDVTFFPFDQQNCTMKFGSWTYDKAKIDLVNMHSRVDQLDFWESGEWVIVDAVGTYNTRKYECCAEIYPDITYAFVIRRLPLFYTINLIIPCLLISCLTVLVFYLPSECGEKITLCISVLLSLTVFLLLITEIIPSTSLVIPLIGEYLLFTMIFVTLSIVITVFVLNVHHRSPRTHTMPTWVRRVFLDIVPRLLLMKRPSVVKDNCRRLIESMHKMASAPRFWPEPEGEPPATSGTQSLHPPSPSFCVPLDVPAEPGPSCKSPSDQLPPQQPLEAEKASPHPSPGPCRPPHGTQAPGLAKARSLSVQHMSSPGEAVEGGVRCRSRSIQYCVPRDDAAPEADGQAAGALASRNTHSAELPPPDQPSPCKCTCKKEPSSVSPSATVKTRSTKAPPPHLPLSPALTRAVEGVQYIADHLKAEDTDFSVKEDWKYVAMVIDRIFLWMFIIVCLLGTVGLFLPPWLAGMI
T5 sequence (P17787 26-502): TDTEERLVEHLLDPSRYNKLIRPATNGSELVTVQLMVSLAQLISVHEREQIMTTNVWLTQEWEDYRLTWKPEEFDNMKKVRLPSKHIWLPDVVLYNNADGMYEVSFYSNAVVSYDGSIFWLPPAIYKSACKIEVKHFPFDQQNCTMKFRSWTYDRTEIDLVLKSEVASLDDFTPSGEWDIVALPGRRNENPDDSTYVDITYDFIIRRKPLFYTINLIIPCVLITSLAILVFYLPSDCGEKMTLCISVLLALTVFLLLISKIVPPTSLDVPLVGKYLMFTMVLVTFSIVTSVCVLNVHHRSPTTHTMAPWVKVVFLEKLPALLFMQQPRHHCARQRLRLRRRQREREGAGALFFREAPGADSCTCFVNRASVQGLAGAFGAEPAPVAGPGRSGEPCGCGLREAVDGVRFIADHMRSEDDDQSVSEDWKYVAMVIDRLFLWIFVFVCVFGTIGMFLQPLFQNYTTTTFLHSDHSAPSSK
T4 sequence (P32297 32-505): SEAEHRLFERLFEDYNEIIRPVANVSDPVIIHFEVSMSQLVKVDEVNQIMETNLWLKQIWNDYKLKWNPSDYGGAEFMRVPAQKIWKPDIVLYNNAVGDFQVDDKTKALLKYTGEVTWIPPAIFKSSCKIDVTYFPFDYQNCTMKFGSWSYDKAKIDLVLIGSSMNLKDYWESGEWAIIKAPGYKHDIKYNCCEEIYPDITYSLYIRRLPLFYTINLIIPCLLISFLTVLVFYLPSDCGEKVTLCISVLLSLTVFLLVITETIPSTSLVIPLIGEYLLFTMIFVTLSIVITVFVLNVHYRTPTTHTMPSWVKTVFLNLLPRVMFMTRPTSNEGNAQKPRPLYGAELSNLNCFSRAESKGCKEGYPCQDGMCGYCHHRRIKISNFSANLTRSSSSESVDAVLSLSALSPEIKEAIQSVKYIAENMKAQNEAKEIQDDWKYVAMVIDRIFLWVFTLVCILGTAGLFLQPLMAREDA
T4 sequence (P30926 22-498): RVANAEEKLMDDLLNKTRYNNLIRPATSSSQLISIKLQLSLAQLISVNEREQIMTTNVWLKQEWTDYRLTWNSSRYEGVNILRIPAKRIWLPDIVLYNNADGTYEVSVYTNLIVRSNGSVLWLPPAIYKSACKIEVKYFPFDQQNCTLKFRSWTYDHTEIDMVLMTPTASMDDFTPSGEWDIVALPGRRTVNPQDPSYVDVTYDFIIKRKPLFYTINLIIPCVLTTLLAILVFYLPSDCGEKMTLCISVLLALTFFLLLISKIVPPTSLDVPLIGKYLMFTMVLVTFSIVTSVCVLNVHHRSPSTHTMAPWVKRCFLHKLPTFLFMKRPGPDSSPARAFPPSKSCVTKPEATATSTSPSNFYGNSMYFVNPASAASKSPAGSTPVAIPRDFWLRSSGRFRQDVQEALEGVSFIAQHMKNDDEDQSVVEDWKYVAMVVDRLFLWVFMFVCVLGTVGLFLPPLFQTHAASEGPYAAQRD
T1 sequence (Q9UGM1 26-479 limits assumed): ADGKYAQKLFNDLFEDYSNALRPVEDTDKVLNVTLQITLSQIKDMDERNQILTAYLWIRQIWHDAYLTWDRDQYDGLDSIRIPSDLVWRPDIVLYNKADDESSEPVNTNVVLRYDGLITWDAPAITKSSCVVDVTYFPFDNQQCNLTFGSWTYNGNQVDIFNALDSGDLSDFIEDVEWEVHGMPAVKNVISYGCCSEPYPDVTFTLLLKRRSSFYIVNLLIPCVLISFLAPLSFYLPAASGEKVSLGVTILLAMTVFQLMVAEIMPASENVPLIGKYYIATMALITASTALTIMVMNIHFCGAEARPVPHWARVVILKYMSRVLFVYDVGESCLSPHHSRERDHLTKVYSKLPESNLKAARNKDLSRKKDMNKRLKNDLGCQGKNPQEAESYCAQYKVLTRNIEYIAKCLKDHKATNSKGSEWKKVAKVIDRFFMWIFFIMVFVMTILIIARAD
T3 sequence (Q9UGM1 26-479 limits assumed): as above
T3 sequence (Q9GZZ6 25-450): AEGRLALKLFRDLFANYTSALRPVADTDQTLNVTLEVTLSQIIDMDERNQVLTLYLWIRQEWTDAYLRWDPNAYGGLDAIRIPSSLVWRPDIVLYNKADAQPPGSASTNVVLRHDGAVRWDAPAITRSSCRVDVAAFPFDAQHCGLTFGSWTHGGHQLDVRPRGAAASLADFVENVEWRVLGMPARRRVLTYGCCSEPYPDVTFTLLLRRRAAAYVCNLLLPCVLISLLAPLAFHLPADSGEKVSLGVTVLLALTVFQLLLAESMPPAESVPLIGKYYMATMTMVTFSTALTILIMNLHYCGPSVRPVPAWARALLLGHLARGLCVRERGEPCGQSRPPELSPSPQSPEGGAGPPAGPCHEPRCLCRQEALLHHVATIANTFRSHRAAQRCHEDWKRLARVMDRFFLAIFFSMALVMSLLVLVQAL
T6 sequence (P04756 21-457): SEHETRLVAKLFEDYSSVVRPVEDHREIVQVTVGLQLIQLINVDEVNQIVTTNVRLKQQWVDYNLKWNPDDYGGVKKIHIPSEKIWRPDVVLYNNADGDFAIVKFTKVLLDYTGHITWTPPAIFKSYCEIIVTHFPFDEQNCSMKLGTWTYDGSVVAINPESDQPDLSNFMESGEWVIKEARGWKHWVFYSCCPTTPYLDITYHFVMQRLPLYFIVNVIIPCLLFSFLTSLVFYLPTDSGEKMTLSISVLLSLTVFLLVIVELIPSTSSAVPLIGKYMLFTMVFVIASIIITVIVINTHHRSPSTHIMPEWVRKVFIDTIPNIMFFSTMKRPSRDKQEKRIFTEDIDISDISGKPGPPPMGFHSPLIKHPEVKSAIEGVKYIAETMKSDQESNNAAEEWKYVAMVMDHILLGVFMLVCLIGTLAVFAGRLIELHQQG
T6 sequence (P09690 24-501): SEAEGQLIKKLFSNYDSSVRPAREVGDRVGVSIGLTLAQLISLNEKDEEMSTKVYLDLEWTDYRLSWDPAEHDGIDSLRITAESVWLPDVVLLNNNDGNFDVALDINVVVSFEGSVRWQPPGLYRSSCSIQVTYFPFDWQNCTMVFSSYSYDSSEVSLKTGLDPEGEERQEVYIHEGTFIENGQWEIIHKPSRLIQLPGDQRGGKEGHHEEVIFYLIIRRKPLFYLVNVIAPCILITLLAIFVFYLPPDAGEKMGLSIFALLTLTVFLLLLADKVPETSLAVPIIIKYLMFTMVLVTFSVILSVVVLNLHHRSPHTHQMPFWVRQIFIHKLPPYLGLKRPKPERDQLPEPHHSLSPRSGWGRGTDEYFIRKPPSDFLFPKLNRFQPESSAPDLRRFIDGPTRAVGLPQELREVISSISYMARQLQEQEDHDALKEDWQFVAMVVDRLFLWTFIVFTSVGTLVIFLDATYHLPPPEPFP
T6 sequence (P20782 21-493): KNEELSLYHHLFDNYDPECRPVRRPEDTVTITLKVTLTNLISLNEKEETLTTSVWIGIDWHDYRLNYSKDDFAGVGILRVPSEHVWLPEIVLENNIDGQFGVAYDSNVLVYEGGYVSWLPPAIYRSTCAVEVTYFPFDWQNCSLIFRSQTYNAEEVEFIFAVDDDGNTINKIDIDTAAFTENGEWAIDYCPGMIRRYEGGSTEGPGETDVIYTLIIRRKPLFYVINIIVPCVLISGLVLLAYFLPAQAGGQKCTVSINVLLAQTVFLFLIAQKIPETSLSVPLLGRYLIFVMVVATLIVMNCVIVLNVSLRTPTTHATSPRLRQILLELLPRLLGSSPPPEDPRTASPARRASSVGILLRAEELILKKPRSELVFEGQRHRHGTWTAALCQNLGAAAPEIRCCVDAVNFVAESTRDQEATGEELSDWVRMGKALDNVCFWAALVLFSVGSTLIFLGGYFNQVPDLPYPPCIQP
T6 sequence (P02716 25-520): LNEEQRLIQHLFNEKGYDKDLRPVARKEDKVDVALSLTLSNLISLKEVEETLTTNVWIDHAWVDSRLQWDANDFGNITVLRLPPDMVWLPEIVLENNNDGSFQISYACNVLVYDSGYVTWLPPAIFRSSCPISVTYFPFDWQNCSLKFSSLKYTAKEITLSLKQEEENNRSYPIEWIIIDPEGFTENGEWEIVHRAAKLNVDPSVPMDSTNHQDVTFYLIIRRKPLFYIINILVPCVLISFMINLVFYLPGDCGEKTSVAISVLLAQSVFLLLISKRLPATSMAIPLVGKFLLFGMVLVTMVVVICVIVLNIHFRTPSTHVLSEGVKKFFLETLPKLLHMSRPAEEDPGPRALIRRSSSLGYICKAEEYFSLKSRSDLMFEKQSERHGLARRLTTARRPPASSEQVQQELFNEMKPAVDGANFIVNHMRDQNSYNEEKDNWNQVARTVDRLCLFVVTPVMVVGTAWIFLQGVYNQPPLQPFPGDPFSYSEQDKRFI

| Structure (SMILES) | Agonist character / efficacy at α9 [1] | Agonist character / efficacy at α7 [2] | Agonist character at α7 [5] | EC50 [1, 11] | α9 Imax [1, 11] | Agonist character / efficacy at α9α10 [6] | EC50 [6, 11] | α9α10 Imax [6, 11] | EC50 [2] | α7 Imax [2] | Response co-applied with PNU-120596, normalized to ACh co-applied with PNU-120596 [7] | Effect of co-application on the control ACh responses, α3β4 [8] | Effect of co-application on the control ACh responses, α4β2 [9] | Effect of co-application on the control ACh responses, α1β1εδ [10] | other results |
| --- | --- | --- | --- | --- | --- | --- | --- | --- | --- | --- | --- | --- | --- | --- | --- |
| CC[N+]1(CC)CCN(c2ccc(C(=O)Nc3cccc(C)n3)cc2)CC1.[I-] [Compound 2, 1,1-diethyl-4-(4-((6-methylpyridin-2-yl)carbamoyl)phenyl)piperazin-1-ium iodide] | full agonist | partial agonist | partial agonists |  |  |  |  |  |  |  |  |  |  |  | Agonist character at α9 [3]: full α9 agonist; α9α10 Imax [4]: 0.90 ± 0.02; EC50 ([5]; data taken from Papke et al. (2022)): 4300 to 6400 nM; α7 Imax ([5]; relative to ACh (Imax = 1), data taken from Papke et al. (2022)): 0.40-0.57 |
| CC[N+]1(CC)CCN(c2ccc(-c3ncco3)cc2)CC1.[I-] [Compound 3g, 1,1-diethyl-4-(4-(oxazol-2-yl)phenyl)piperazin-1-ium iodide] | full agonism; also recorded: full agonist | strongly diminished activity; also recorded: very weak partial agonists |  | 380 ± 170 nM | 1.29±0.13 | strong partial agonist | 700 ± 30 nM | 0.83±0.01 | 1700 ± 400 nM | 0.12 ± 0.01 and 0.12 | 0.05 | 0.507 ± 0.032 | 0.823 ± 0.043 | 0.353 ± 0.071 | α9 EC50 [1, 11]: submicromolar potency; α9α10 EC50 [6, 11]: submicromolar potency |
| CC[N+]1(CC)CCN(c2ccc(-n3cccn3)cc2)CC1.[I-] [Compound 3h, 4-(4-(1H-pyrazol-1-yl)phenyl)-1,1-diethylpiperazin-1-ium iodide] | full agonist | very weak partial agonists |  | 1490 ± 240 nM | 1.01 ± 0.04 | partial agonist | 2000 ± 800 nM | 0.59 ± 0.05 | 18000 ± 600 nM | 0.088 ± 0.001 and 0.088 | 0.17 | 0.736 ± 0.034 | 0.913 ± 0.026 | 0.590 ± 0.062 | Fold loss of potency at α9 relative to comparator compound [1, 12]: 3 fold; Fold loss of potency at α9α10 relative to comparator compound [6, 12]: 3 fold; Fold loss of potency at α7 relative to comparator compound ([2]; 3h compared with 3g): 10 fold; Response co-applied with PNU-120596 relative to the ACh controls [7]: approximately 4 times |
| CC[N+]1(CC)CCN(c2ccc(-n3cccc3)cc2)CC1.[I-] [Compound 3i, 4-(4-(1H-pyrrol-1-yl)phenyl)-1,1-diethylpiperazin-1-ium iodide] | reduced efficacy; also recorded: weakened partial agonist | reduced efficacy |  | 1120 ± 250 nM | 0.27 ± 0.01 | weakened partial agonist | 1500 ± 600 nM | 0.17 ± 0.01 | 27000 ± 4000 nM | 0.041 ± 0.002 and 0.041 | 0.08 | 0.387 ± 0.057 | 0.709 ± 0.086 | 0.691 ± 0.094 | Response co-applied with PNU-120596 relative to the ACh controls [7]: ~2 times |
| CC[N+]1(CC)CCCCC1 [diE-piperidinium, reference compound] |  |  | silent agonist |  |  |  |  |  |  |  |  |  |  |  |  |
| C[N+]1(C)CCCCC1 [diM-piperidinium, reference compound] |  |  | essentially a full agonist |  |  |  |  |  |  |  |  |  |  |  |  |
| CC[N+]1(CC)CCN(c2ccc(C(F)(F)F)cc2)CC1 [pCF3-diEPP, reference compound] |  |  |  |  |  |  |  |  |  |  |  |  |  |  | Agonist character at α9 [3]: partial agonist |
